Reference: paper PMC11082216, “A genetically encoded biosensor to monitor dynamic changes of c-di-GMP with high temporal resolution” (Nature Communications, 2024)

Legend:
PdeA [1] = target: T1, PdeA (Caulobacter vibrioides, UniProt A0A0H3CDG5); test: activation of purified PdeA phosphodiesterase, c-di-GMP turnover read with cdGreen2, GTP dose-response; format: biochemical
T1 sequence (A0A0H3CDG5 1-555): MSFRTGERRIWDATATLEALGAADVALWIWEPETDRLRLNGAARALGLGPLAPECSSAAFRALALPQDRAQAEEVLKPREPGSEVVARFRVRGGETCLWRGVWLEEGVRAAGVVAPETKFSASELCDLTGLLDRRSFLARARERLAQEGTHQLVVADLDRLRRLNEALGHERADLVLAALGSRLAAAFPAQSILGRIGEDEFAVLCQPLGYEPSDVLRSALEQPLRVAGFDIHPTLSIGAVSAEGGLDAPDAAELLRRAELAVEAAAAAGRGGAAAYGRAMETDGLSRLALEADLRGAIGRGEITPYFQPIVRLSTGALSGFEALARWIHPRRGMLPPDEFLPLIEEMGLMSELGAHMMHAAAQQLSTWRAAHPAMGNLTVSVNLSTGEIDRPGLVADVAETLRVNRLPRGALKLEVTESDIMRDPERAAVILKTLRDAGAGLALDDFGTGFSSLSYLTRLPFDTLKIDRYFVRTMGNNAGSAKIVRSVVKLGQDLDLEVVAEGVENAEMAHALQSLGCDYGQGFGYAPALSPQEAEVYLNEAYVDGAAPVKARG

PdeA [2] = target: T1, PdeA; test: purified phosphodiesterase turnover of c-di-GMP read with cdGreen2; format: biochemical

Compound | Kd (PdeA [1]) | purified phosphodiesterase turnover of c-di-GMP read with cdGreen2 (PdeA [2])
Nc1nc2c(ncn2[C@@H]2O[C@H](COP(=O)(O)OP(=O)(O)OP(=O)(O)O)[C@@H](O)[C@H]2O)c(=O)[nH]1 [GTP] | ~3.4 µM | 
Nc1nc2c(ncn2[C@@H]2O[C@@H]3COP(=O)(O)O[C@H]4[C@@H](O)[C@H](n5cnc6c(=O)[nH]c(N)nc65)O[C@@H]4COP(=O)(O)O[C@H]3[C@H]2O)c(=O)[nH]1 [c-di-GMP] |  | purified cdGreen2 also accurately monitored the breakdown of c-di-GMP by all PDEs tested
